Among the data in ChEMBL document CHEMBL1145152, “Design, synthesis, and antifolate activity of new analogues of piritrexim and other diaminopyrimidine dihydrofolate reductase inhibitors with omega-carboxyalkoxy or omega-carboxy-1-alkynyl substitution in the side chain” (J Med Chem, 2005) are IC50 and Selectivity index values, retold here.

pIC50: −log10 of the molar value.

In test [1] the target is T1, Dihydrofolate reductase (Rattus norvegicus, UniProt Q920D2).
T1 sequence (Q920D2 whole entry): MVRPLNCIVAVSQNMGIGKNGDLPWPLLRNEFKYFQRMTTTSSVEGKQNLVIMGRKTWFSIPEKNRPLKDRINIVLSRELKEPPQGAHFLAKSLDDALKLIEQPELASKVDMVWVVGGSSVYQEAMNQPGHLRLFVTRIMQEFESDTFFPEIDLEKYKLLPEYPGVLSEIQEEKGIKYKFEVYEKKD
Description: Inhibitory concentration against rat DHFR

The target in test [2] is T2, Dihydrofolate reductase (Mycobacterium avium, UniProt O30463).
T2 sequence (O30463 whole entry): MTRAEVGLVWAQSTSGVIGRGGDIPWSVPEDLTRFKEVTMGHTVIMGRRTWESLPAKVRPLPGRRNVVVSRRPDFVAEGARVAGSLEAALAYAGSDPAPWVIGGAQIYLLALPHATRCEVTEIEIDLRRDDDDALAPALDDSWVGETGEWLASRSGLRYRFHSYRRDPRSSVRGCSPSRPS
Description: Inhibitory concentration against Mycobacterium avium DHFR

Test [3] deals with T3, Bifunctional dihydrofolate reductase-thymidylate synthase (Toxoplasma gondii, UniProt Q07422).
T3 sequence (Q07422 whole entry): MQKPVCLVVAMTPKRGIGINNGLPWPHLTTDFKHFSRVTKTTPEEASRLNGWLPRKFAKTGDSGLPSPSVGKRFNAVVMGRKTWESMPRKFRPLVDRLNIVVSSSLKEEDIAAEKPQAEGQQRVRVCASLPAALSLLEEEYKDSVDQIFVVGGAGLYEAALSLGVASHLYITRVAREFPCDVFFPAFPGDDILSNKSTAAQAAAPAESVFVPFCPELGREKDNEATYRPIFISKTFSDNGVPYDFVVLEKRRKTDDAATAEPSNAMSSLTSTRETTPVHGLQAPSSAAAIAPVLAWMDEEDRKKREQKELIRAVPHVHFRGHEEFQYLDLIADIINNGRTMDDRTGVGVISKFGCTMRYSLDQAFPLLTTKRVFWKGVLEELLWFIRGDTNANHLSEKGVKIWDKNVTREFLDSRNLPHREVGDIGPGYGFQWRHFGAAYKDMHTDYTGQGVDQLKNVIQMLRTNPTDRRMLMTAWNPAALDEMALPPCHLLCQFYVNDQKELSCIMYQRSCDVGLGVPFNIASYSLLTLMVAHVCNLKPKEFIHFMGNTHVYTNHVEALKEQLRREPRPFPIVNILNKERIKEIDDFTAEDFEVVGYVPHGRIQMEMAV
Description: Inhibitory concentration against Toxoplasma gondii DHFR

Test [4] addresses T4, Dihydrofolate reductase (Pneumocystis carinii, UniProt P16184).
T4 sequence (P16184 whole entry): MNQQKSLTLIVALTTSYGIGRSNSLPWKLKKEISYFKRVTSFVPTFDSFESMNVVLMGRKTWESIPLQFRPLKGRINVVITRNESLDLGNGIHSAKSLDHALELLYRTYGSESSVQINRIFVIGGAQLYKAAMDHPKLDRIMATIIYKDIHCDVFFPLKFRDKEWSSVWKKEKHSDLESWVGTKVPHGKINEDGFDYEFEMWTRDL
Description: Inhibitory concentration against Pneumocystis carinii DHFR

Test [5] can be described thus: Selectivity index measured as IC50(Rat)/IC50(Mycobacterium avium).
The nature of test [6]: Concentration causing inhibition of CCRF-CEM human leukemic lymphoblasts growth in a 72 hr culture. Format: functional, cell-based.
Test [7] in a line: Concentration causing inhibition of CCRF-CEM human leukemic lymphoblasts growth in 72 hr culture. Format: functional, cell-based.

Turning to `CCOC(=O)CCCCOc1ccc(OC)c(Cc2cnc3nc(N)nc(N)c3c2C)c1`, the pIC50 is 7.85 on Dihydrofolate reductase [1], 8.03 at Dihydrofolate reductase [2], 7.96 in test [3] and 7.55 against Dihydrofolate reductase [4]. Besides, the Selectivity index in test [5] is 1.5.
As for `COc1cc(Cc2cnc(N)nc2N)cc(C#CCCC(=O)O)c1Br`, the pIC50 at Dihydrofolate reductase [1] is 6.20; at Dihydrofolate reductase [2], 9.33; in test [3], 7.82; on Dihydrofolate reductase [4], 7.15. For the same molecule, in test [5], the Selectivity index came out at 1300.
As to `COc1ccc(C#CCCCC(=O)O)cc1Cc1cnc2nc(N)nc(N)c2c1C`, the pIC50 at Dihydrofolate reductase [1] is 8.24; against Dihydrofolate reductase [2] it was 9.00; in test [3], 8.37; against Dihydrofolate reductase [4], 8.85; in test [6], 5.21. In addition, the Selectivity index in test [5] was determined as 5.6.
In the case of `COc1ccc(I)cc1Cc1cnc2nc(N)nc(N)c2c1C`, the pIC50 against Dihydrofolate reductase [1] is 8.30; at Dihydrofolate reductase [2], 9.04; in test [3] it was 8.39; against Dihydrofolate reductase [4], 8.24. The same molecule yielded a Selectivity index in test [5] of 5.4.
On to `Nc1nc(N)c2nc(CN3c4ccccc4C=Cc4c(C#CCCC(=O)O)cccc43)cnc2n1`, for which the negative-log IC50 (pIC50) at Dihydrofolate reductase [1] was 6.25; on Dihydrofolate reductase [2], 8.54; in test [3], 7.11; against Dihydrofolate reductase [4], 6.64. This molecule returned a Selectivity index in test [5] of 190.
Take `COc1ccc(OCCCC(=O)O)c(Cc2cnc3nc(N)nc(N)c3c2C)c1`: the pIC50 at Dihydrofolate reductase [1] is 8.04; at Dihydrofolate reductase [2] it was 9.49; in test [7] it was 5.28; in test [3], 8.64; at Dihydrofolate reductase [4], 9.77. Also, the Selectivity index in test [5] came to 28.
In the case of `COc1ccc(OCCCCCC(=O)O)cc1Cc1cnc2nc(N)nc(N)c2c1C`, the pIC50 was 8.70 against Dihydrofolate reductase [1], 9.46 on Dihydrofolate reductase [2], 8.70 in test [3] and 8.89 against Dihydrofolate reductase [4]. This molecule registered a Selectivity index in test [5] of 5.9.
For the molecule `COc1ccc(C#CCCCCC(=O)O)cc1Cc1cnc2nc(N)nc(N)c2c1C`, the negative logarithm of the IC50 (pIC50) against Dihydrofolate reductase [1] is 8.40; on Dihydrofolate reductase [2], 9.16; in test [3] it was 8.49; at Dihydrofolate reductase [4] it was 8.74. This molecule yielded a Selectivity index in test [5] of 5.8.
The matching figures for `COc1ccc(C#CCCC(=O)O)c(Cc2cnc3nc(N)nc(N)c3c2C)c1`: 7.26, 9.24, 8.39, 9.19 and 96.
Take `COc1ccc(OCCCCC(=O)O)cc1Cc1cnc2nc(N)nc(N)c2c1C`: the negative-log IC50 (pIC50) on Dihydrofolate reductase [1] was 8.66; at Dihydrofolate reductase [2], 9.54; in test [3], 8.64; against Dihydrofolate reductase [4], 9.29. Moreover, the Selectivity index in test [5] turned out to be 7.5.
The matching figures for `COc1ccc(I)c(Cc2cnc3nc(N)nc(N)c3c2C)c1`: 8.40, 8.74, 8.24, 8.42 and 2.2.
`CCOC(=O)CCCOc1ccc(OC)cc1Cc1cnc2nc(N)nc(N)c2c1C`: the pIC50 against Dihydrofolate reductase [1] was 7.03; at Dihydrofolate reductase [2] it was 8.25; in test [3], 8.00; against Dihydrofolate reductase [4] it was 7.08. In test [5], this molecule yielded a Selectivity index of 17.
With `COc1ccc(C#CCCCC(=O)O)c(Cc2cnc3nc(N)nc(N)c3c2C)c1`, the pIC50 is 7.62 at Dihydrofolate reductase [1]; 8.89 against Dihydrofolate reductase [2]; 5.55 in test [7]; 8.24 in test [3]; 8.92 at Dihydrofolate reductase [4]. Further, the Selectivity index in test [5] amounted to 18.
The molecule `COc1ccc(OC)c(Cc2cnc3nc(N)nc(N)c3c2C)c1` [PIRITREXIM] gave a pIC50 in test [6] of 7.89.
As for `Nc1nc(N)c2nc(CN3c4ccccc4C=Cc4c(C#CCCCC(=O)O)cccc43)cnc2n1`, the pIC50 is 5.89 on Dihydrofolate reductase [1], 8.20 against Dihydrofolate reductase [2], 7.68 in test [3] and 7.92 against Dihydrofolate reductase [4]. In addition, the Selectivity index in test [5] came to 210.
Take `COc1ccc(OCCCC(=O)O)cc1Cc1cnc2nc(N)nc(N)c2c1C`: the pIC50 against Dihydrofolate reductase [1] was 8.66; at Dihydrofolate reductase [2], 9.59; in test [7], 5.43; in test [3] it was 8.72; at Dihydrofolate reductase [4] it was 9.37. The Selectivity index in test [5] worked out at 8.5.
With `CCOC(=O)CCCOc1ccc(OC)c(Cc2cnc3nc(N)nc(N)c3c2C)c1`, the pIC50 against Dihydrofolate reductase [1] is 8.38; against Dihydrofolate reductase [2] it was 8.74; in test [3] it was 8.47; against Dihydrofolate reductase [4], 8.19. In test [5], this molecule gave a Selectivity index of 2.3.
The matching figures for `COc1ccc(OCc2ccccc2)c(Cc2cnc3nc(N)nc(N)c3c2C)c1`: 6.77, 8.07, 7.80, 7.02 and 20.
For `CCOC(=O)CCCCCOc1ccc(OC)c(Cc2cnc3nc(N)nc(N)c3c2C)c1`, the pIC50 against Dihydrofolate reductase [1] was 7.68; against Dihydrofolate reductase [2] it was 7.92; in test [3], 7.89; against Dihydrofolate reductase [4], 7.46. The same molecule yielded a Selectivity index in test [5] of 1.8.
With `COc1ccc(C#CCCC(=O)O)cc1Cc1cnc2nc(N)nc(N)c2c1C`, the pIC50 against Dihydrofolate reductase [1] is 9.49; on Dihydrofolate reductase [2] it was 10.24; in test [3], 9.34; against Dihydrofolate reductase [4] it was 10.01. The Selectivity index in test [5] is 5.6.
